Results: patent EP0044495B1, “16-Beta ethyl steroids, compositions containing them and process for their preparation” (SCHERING AKTIENGESELLSCHAFT, priority 1980, dated 1982)

Tested on: Samenblasen- und Prostatagewichts von Ratten
Assay: Antiandrogenic effect: inhibition of the testosterone propionate-induced increase in seminal vesicle and prostate weight of rats after subcutaneous administration
Type: in vivo
Settings: for Testosteronpropionat-Hemmung Prostata / Testosteronpropionat-Hemmung Samenblase: rats, subcutaneous administration, Dosis 0,3 mg/Tag per animal; for Testosteronpropionat-Hemmung Prostata: prostate weight; for Testosteronpropionat-Hemmung Samenblase: seminal vesicle weight
Description: Die neuen Verbindungen der allgemeinen Formel 1 besitzen starke antiandrogene Wirkung.

CC[C@H]1C[C@H]2[C@@H]3CCC4=CC(=O)CC[C@@H]4[C@H]3CC[C@]2(C)[C@H]1O [B, 16ß-Ethyl-17ß-hydroxy-4-estren-3-on, reference compound]
Testosteronpropionat-Hemmung Prostata: 0%
Testosteronpropionat-Hemmung Samenblase: 13%

CC[C@H]1C[C@H]2[C@@H]3CCC4=CC(=O)CCC4=C3CC[C@]2(C)[C@H]1O [A, 16ß-Ethyl-17ß-hydroxy-4,9(10)-estradien-3-on]
Testosteronpropionat-Hemmung Prostata: 18%
Testosteronpropionat-Hemmung Samenblase: 34%
antiandrogene Wirkung (result in words, comparison of A with B at 0,3 mg pro Tier und Tag, or general statement): signifikant wirksamer
